Columns and labels:
RIPK1 = target: T1, RIPK1 (Homo sapiens, UniProt Q13546); experiment: KINOMEscan Max competition binding assay, RIPK1; conditions: RIPK1, FIG. 8
T1 construct: DNA tag (qPCR read-out); purchased DiscoveRx Corporation, Fremont, USA (assay service)
T1 sequence (Q13546 1-671): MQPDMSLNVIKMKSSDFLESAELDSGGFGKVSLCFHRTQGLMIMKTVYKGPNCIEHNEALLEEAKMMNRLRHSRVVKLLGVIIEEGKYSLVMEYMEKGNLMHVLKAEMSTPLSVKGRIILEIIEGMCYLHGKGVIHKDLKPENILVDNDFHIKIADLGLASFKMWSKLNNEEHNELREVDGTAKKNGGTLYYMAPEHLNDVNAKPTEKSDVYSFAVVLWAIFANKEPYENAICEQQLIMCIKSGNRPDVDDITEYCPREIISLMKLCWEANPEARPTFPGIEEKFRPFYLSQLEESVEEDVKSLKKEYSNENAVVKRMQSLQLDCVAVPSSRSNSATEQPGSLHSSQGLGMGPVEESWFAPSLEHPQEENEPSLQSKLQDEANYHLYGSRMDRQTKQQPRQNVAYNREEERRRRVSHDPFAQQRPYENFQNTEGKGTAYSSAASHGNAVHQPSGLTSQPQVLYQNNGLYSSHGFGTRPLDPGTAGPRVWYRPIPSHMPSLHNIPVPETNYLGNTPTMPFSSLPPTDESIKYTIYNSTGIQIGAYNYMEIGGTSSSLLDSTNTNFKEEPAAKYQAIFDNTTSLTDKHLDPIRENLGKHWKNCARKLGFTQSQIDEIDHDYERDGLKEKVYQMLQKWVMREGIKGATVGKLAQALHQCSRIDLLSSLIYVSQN
Procedure: This experimental approach quantitatively measures the ability of a compound to compete with an immobilized, active-site directed ligand. […] The ability of compound 1 to compete with the immobilized ligand is measured via quantitative PCR of the DNA tag. The codes reported on the FIG. 8 indicate the subclasses of protein kinases: CMGC for CDKs, MAP kinases, GSK and CDK-like kinases; AGC for Protein kinase A, G, and C families (PKA, PKC, PKG); CAMK for Ca2+/calmodulin-dependent protein kinases; CK1, Cell Kinases 1 (originally known as Casein Kinase 1); STE, STE Kinases (Homologs of yeast STErile kinases); TKL, Tyrosine Kinases-Like; TK, Tyrosine Kinases. Each kinase tested in the assay panel is marked with a circle. The hit kinase reported, RIPK1, is marked with a black circle.

[1] = test system: Murine hippocampal neuronal cell line HT22; experiment: L-glutamate-induced oxytosis in HT22 cells, MTS viability assay; type: cell-based; conditions: 10 mM L-glutamate, 24 hours, FIG. 14
Procedure: Murine hippocampal neuronal cell line HT22 was treated with 10 mM of (L)-glutamate (oxytosis initiator) or 1 μM erastin (ferroptosis initiator).
Cells were then incubated at 37° C., 5% CO2 for 24 hours before performing MTS viability assay. Cell viability was monitored using CellTiter 96® AQueous Non-Radioactive Cell Proliferation Assay (Promega, Fitchburg, WI, USA), based on the water-soluble tetrazolium compound MTS (3-[4,5-dimethylthiazol-2-yl]-5-[3-carboxymethoxy-phenyl]-2-[4-sulfophenyl]-2H-tetrazolium, inner salt) according to the manufacturers instructions.

[2] = test system: rat embryonic myoblastic H9C2 cells; experiment: H2O2-induced necrosis, LDH release assay; type: cell-based; conditions: 10 μM, 2 hours pretreatment, 800 μM H2O2 for 24 hours, FIG. 17
Procedure: The rat embryonic myoblastic H9C2 cells were cultured at 10,000 cells/well in 96-well-plates for 24 hours at 37° C./5% CO2. […] LB corresponds to cells treated with a lysis buffer (100% of cell death). Cell cytotoxicity was determined by a colorimetric assay quantitatively measuring lactate dehydrogenase (LDH) released […].

- initial amount of kinase still on the affinity matrix after competition (RIPK1): 0.15%
Compound: COc1cc(O)c2c(c1)OC(O)(c1ccc(OCc3ccccc3)cc1)CC2=O (stereo not drawn) [compound 1]
- concentration that protects cells from death induced by L-glutamate [1]: > 25 µM
- protection from death induced by H2O2 (LDH release) [2]: protects from death induced by H2O2
